Source: patent US11266715B2, “C3A receptor agonists for use against ischemic brain injury, stroke, traumatic brain injury, spinal cord injury and neurodegenerative disorders” (priority 2016, dated 2022)

Experiments:
[1] = Body weight gain after neonatal HI and intranasal treatment; format: in vivo, mouse; details: across surgeries, treatments and genotypes
Text: Unpaired t test was used to analyze the cue-induced fear conditioning experimental data. For the analysis of the total exploration time during the object recognition test and the open field experiment, one-way Analysis of Variance (ANOVA) was used, followed by a Tukey's multiple comparisons post-hoc test. Two-way ANOVA, with a Tukey's multiple comparisons post-hoc test, was used to analyze time spent exploring individual objects during the object recognition test, as well as the histomorphologic data and image analysis data. Two-way repeated measures ANOVA with a Tukey's multiple comparisons post-hoc test were used to analyze the body weight. Data are presented as mean±SEM. P values <0.05 were considered statistically significant.
To assess potential adverse effects of intranasal C3a administration on the overall animal health status and development, the inventors recorded animal weight gain across surgeries, treatments and different genotype conditions.

[2] = system: mice subjected to neonatal HI injury; assay: Object recognition test after neonatal HI injury, 3 days intranasal treatment; format: in vivo, mouse
Method: In the short-term study (3 days of intranasal treatment), 3 groups of WT mice were used; animals subjected to neonatal HI injury and treated with either C3a (HI-C3a, n=18) or PBS (HI-PBS, n=18) and sham-operated animals treated with PBS (SHAM-PBS, n=19). These mice were tested in an open field and object recognition test (ORT) at P50-P54 and brains were collected at P55 (FIG. 8A).
Neonatal HI injury was induced on postnatal day 9 (P9), as previously described with modifications for mice (Hedtjärn et al., 2002; Rice et al., 1981; Sheldon et al., 1998). Mice were anesthetized with 3.5% isoflurane (Baxter Medical, Kista, Sweden) for induction and 1.5% thereafter, in 1:1 oxygen and nitrous oxide. The left common carotid artery was dissected and permanently ligated with a prolene suture (6.0). The incision was closed and infiltrated with lidocaine (Xylocain®, Astra Zeneca, Gothenburg, Sweden). Mice were returned to the dam for 1 hour and then placed in a chamber with humidified air at 36° C. for 10 min, then exposed to humidified 10% oxygen in nitrogen for 30 min at 36° C., and then kept in humidified air at 36° C. for 10 min before being returned to the dam. Sham animals were subjected to an incision in the neck on P9. These pups were also removed from the dam for the time duration that injured animals stayed in the chamber, but remained instead in a warming tray at 36° C. under normal oxygen conditions. At postnatal day 21 (P21) mice were weaned and group housed with same sex littermates.
Purified human C3a (Complement Technology Inc., Tyler, Tex., USA) was diluted in sterile phosphate buffered saline (PBS) to a concentration of 200 nM, and a total of 8 μl i.e. […] (4 μl/nostril; corresponding to ca. 2.56 μg/kg body weight) of peptide solution or PBS was given intranasally to awake and hand-restrained mice held in a supine position. Solutions were administered through a pipette tip, drop-wise in 2 μl-portions divided by 1 min intervals to allow for absorption. […] C3a or PBS was given every 24 hours for three (short-term study) or seven (long-term study) days starting 1 h after HI induction, i.e. between P9 and P11 or P9 and P15, respectively. Mice in each litter were randomly assigned to C3a or PBS treatment. Sham animals received PBS. The investigators carrying out behavioural studies and analysing data were blinded to treatment group.
The object recognition test is based on the innate preference of mice to explore a novel object rather than a familiar one. Therefore, animals that remember the familiar object will spend more time exploring the novel object (Leger et al., 2013). From 3 days before starting the test, mice were daily handled for 2 min to minimize the possible stress due the researcher interaction. All experiments were performed at the same time of the day, between 9 am and […], and inside of a plastic box of 50×50×50 cm dimensions where the light intensity was dim and equal in all parts of the apparatus. […] Prior to the familiarization session, during which two identical objects were introduced, mice were habituated to the apparatus for 10 min during 3 consecutive days. Activity on the first habituation day was recorded as an open field test to assess locomotor and exploratory activities. During the familiarization session, two identical 250 ml bottles filled with shredded paper were placed at an equal distance from the arena walls (approximately 5 cm). […]

C3a: Purified human C3a peptide (Complement Technologies), C3a receptor agonist, amino acid sequence SEQ ID NO: 1
body weight gain [1]: neither the surgery nor the C3a treatment affected body weight gain | time exploring novel vs familiar object, long-term memory (24 h) ([2]; C3a treated mice p<0.05): significantly longer time exploring the novel compared to familiar object | exploratory behavior in the familiarization phase ([2]; intranasal C3a 3 days from 1 h post-HI): not altered | time exploring the novel object, short-term memory (6 h), vs PBS-treated mice post-HI ([2]; p<0.01): spent more time exploring the novel object | total object exploration time, long-term memory (24 h), vs PBS ([2]; p<0.05): longer | total object exploration time, short-term memory (6 h), vs PBS ([2]; p<0.05): longer total object exploration time
